# According to patent US20260022142A1, “MACROCYCLIC IMMUNOMODULATORS” (Bristol-Myers Squibb Company, priority 2022, published 2026):
# Like-named read-outs stand apart in the source and are kept apart here. Numbered stars: 1 amine (or outer) side, 2 acyl side, 3 side chain; on linkers, the order of the positions; unused ones are H or OH. Bridge positions count the residues as written; N and C are the ends. Square brackets hold non-standard residues; d marks the D form. Peptide text beside a SMILES is read from it. * marks the point of attachment. ξ: configuration not given here. Phe(4-COOH) = N[C@@H](Cc1ccc(C(=O)O)cc1)C(=O)O; X9 = O=C([C@H](Cc1cc(F)c(F)cc1F)N[*:1])[*:2]; Bip = N[C@@H](Cc1ccc(-c2ccccc2)cc1)C(=O)O; Morpholine(3S-CO) = O=C(O)[C@@H]1COCCN1; 4Pal = N[C@@H](Cc1ccncc1)C(=O)O; X1 = O=C(CN1CCN([*:1])CC1)[*:2]; Cha = N[C@@H](CC1CCCCC1)C(=O)O; Cit = NC(=O)NCCC[C@H](N)C(=O)O; Thr(3ξ) = CC(O)[C@H](N)C(=O)O; 3Abz = Nc1cccc(C(=O)O)c1; 4Abz = Nc1ccc(C(=O)O)cc1; Carboxymethyl = O=C(O)C*; Orn = NCCC[C@H](N)C(=O)O; Aun = NCCCCCCCCCCC(=O)O; Dab = NCC[C@H](N)C(=O)O; Dap = NC[C@H](N)C(=O)O; AEEA = NCCOCCOCC(=O)O
# Biological target: T1, PD-1/PD-L1 interaction (PE-labeled human PD-L1-Ig binding to Jurkat cell line over-expressing human PD-1) (Homo sapiens, UniProt Q15116)
# T1 construct: expressed in transfected cells; host or cells: Jurkat
# T1 sequence (Q15116 25-288): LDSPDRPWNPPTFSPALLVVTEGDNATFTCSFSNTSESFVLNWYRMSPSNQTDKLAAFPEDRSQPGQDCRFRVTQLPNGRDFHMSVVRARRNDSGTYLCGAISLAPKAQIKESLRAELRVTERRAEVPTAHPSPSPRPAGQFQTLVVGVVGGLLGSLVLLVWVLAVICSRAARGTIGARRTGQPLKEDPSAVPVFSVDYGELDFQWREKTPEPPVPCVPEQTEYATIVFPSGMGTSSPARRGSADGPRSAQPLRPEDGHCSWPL
# Assay: Jurkat-PD-1 Cell Binding High-Content Screening Assay (CBA)
# Type: cell-based
# Conditions: PE-labeled PD-L1-Ig 20 nM final
# In short: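 Read-out is high-content imaging of cell-bound phycoerythrin-tagged PD-L1-Ig on fixed, Hoechst-counterstained Jurkat cells that over-express human PD-1. Compound exposure lasts 2 h at 37° C before the labeled ligand (20 nM final) is added for a further hour.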
# [1] = Jurkat cell line over-expressing human PD-1, read-out: Jurkat hPD1-PDL1 IC50
SMILES,IC50 [1] [nM],"IC50 (Jurkat hPD1-PDL1 IC50, Jurkat cell line over-expressing human PD-1) [nM]"
CC(C)C[C@H]1NC(=O)[C@H](CCCN)NC(=O)[C@H](Cc2ccc(O)cc2)NC(=O)[C@H](Cc2ccc(-c3ccccc3)cc2)NC(=O)[C@H](Cc2ccc(OCC(=O)O)cc2)NC(=O)[C@H](Cc2cc(F)c(F)cc2F)NC(=O)[C@H](CC(=O)O)NC(=O)[C@H](Cc2ccc(OCC(=O)O)cc2)NC(=O)[C@H](CN)NC(=O)CSC[C@@H](C(=O)N[C@@H](CCN)C(=O)NCCOCCOCC(=O)NCCCCCCCCCCC(=O)O)NC(=O)[C@H](CCCN)NC(=O)[C@H](C(C)C)NC(=O)[C@H](CC2CCCCC2)NC(=O)[C@H](CCN)NC1=O [Compound 1224] ({CH2CO}-[Dap]Y(Carboxymethyl)D[X9]Y(Carboxymethyl)[Bip]Y[Orn][dL][Dab][Cha]V[Orn]C[Dab][AEEA][Aun]-OH; thioether N-14),141,
CC(C)C[C@@H]1NC(=O)[C@H](Cc2c[nH]c3ccccc23)NC(=O)[C@H](CC(=O)O)NC(=O)[C@H](Cc2ccncc2)NC(=O)[C@H](Cc2ccc(OCC(=O)O)cc2)NC(=O)CSC[C@@H](C(=O)N2CCN(CC(=O)NCCCCCCCCCCC(=O)O)CC2)NC(=O)[C@H](C(C)O)NC(=O)[C@H](C(C)C)NC(=O)[C@H](CC2CCCCC2)NC(=O)[C@H](CCN)NC(=O)[C@@H](CC(C)C)NC(=O)[C@H](CCCN)NC(=O)[C@H](C(C)C)NC(=O)[C@H](Cc2ccc(-c3ccccc3)cc2)NC1=O (stereo partly drawn) [Compound 1225] ({CH2CO}-Y(Carboxymethyl)[4Pal]DWL[Bip]V[Orn][dL][Dab][Cha]V[Thr(3ξ)]C[X1][Aun]-OH; thioether N-14),171,
CC(C)C[C@@H]1NC(=O)[C@H](Cc2c[nH]c3ccccc23)NC(=O)[C@H](CC(=O)O)NC(=O)[C@H](Cc2ccncc2)NC(=O)[C@H](Cc2ccc(OCC(=O)O)cc2)NC(=O)CSC[C@@H](C(=O)Nc2ccc(C(=O)NCCCCCCCCCCC(=O)O)cc2)NC(=O)[C@H](CCCN)NC(=O)[C@H](C(C)C)NC(=O)[C@H](CC2CCCCC2)NC(=O)[C@H](CCN)NC(=O)[C@@H](CC(C)C)NC(=O)[C@H](CCCN)NC(=O)[C@H](C(C)C)NC(=O)[C@H](Cc2ccc(-c3ccccc3)cc2)NC1=O [Compound 1226] ({CH2CO}-Y(Carboxymethyl)[4Pal]DWL[Bip]V[Orn][dL][Dab][Cha]V[Orn]C[4Abz][Aun]-OH; thioether N-14),277,
CC(C)C[C@@H]1NC(=O)[C@H](Cc2c[nH]c3ccccc23)NC(=O)[C@H](CC(=O)O)NC(=O)[C@H](Cc2ccncc2)NC(=O)[C@H](Cc2ccc(OCC(=O)O)cc2)NC(=O)CSC[C@@H](C(=O)N2CCOC[C@H]2C(=O)NCCCCCCCCCCC(=O)O)NC(=O)[C@H](CCCNC(N)=O)NC(=O)[C@H](C(C)C)NC(=O)[C@H](CC2CCCCC2)NC(=O)[C@H](CCN)NC(=O)[C@@H](CC(C)C)NC(=O)[C@H](CCCN)NC(=O)[C@H](C(C)C)NC(=O)[C@H](Cc2ccc(-c3ccccc3)cc2)NC1=O [Compound 1227] ({CH2CO}-Y(Carboxymethyl)[4Pal]DWL[Bip]V[Orn][dL][Dab][Cha]V[Cit]C[Morpholine(3S-CO)][Aun]-OH; thioether N-14),304,
CC(C)C[C@@H]1NC(=O)[C@H](Cc2c[nH]c3ccccc23)NC(=O)[C@H](CC(=O)O)NC(=O)[C@H](Cc2ccncc2)NC(=O)[C@H](Cc2ccc(OCC(=O)O)cc2)NC(=O)CSC[C@@H](C(=O)Nc2cccc(C(=O)NCCCCCCCCCCC(=O)O)c2)NC(=O)[C@H](CCN)NC(=O)[C@H](C(C)C)NC(=O)[C@H](CC2CCCCC2)NC(=O)[C@H](CCN)NC(=O)[C@@H](CC(C)C)NC(=O)[C@H](CCCN)NC(=O)[C@H](C(C)C)NC(=O)[C@H](Cc2ccc(-c3ccccc3)cc2)NC1=O [Compound 1228] ({CH2CO}-Y(Carboxymethyl)[4Pal]DWL[Bip]V[Orn][dL][Dab][Cha]V[Dab]C[3Abz][Aun]-OH; thioether N-14),307,
CC(C)C[C@@H]1NC(=O)[C@H](Cc2c[nH]c3ccccc23)NC(=O)[C@H](CC(=O)O)NC(=O)[C@H](Cc2ccncc2)NC(=O)[C@H](Cc2ccc(OCC(=O)O)cc2)NC(=O)CSC[C@@H](C(=O)Nc2ccc(C(=O)NCCCCCCCCCCC(=O)O)cc2)NC(=O)[C@H](CCN)NC(=O)[C@H](C(C)C)NC(=O)[C@H](CC2CCCCC2)NC(=O)[C@H](CCN)NC(=O)[C@@H](CC(C)C)NC(=O)[C@H](CCCN)NC(=O)[C@H](C(C)C)NC(=O)[C@H](Cc2ccc(-c3ccccc3)cc2)NC1=O [Compound 1229] ({CH2CO}-Y(Carboxymethyl)[4Pal]DWL[Bip]V[Orn][dL][Dab][Cha]V[Dab]C[4Abz][Aun]-OH; thioether N-14),518,
CC(C)C[C@@H]1NC(=O)[C@H](Cc2c[nH]c3ccccc23)NC(=O)[C@H](CC(=O)O)NC(=O)[C@H](Cc2ccncc2)NC(=O)[C@H](Cc2ccc(OCC(=O)O)cc2)NC(=O)CSC[C@@H](C(=O)Nc2ccc(C(=O)NCCCCCCCCCCC(=O)O)cc2)NC(=O)[C@H](CCCNC(=N)N)NC(=O)[C@H](C(C)C)NC(=O)[C@H](CC2CCCCC2)NC(=O)[C@H](CCN)NC(=O)[C@@H](CC(C)C)NC(=O)[C@H](CCCN)NC(=O)[C@H](C(C)C)NC(=O)[C@H](Cc2ccc(-c3ccccc3)cc2)NC1=O [Compound 1230] ({CH2CO}-Y(Carboxymethyl)[4Pal]DWL[Bip]V[Orn][dL][Dab][Cha]VRC[4Abz][Aun]-OH; thioether N-14),,537
CC(C)C[C@@H]1NC(=O)[C@H](Cc2c[nH]c3ccccc23)NC(=O)[C@H](CC(=O)O)NC(=O)[C@H](Cc2ccc(C(=O)O)cc2)NC(=O)[C@H](Cc2ccc(OCC(=O)O)cc2)NC(=O)CSC[C@@H](C(=O)N[C@@H](CN)C(=O)NCCCCCCCCCCC(=O)O)NC(=O)[C@H](CCCNC(N)=O)NC(=O)[C@H](C(C)C)NC(=O)[C@H](CC2CCCCC2)NC(=O)[C@H](CCN)NC(=O)[C@@H](CC(C)C)NC(=O)[C@H](CCCN)NC(=O)[C@H](Cc2ccc(O)cc2)NC(=O)[C@H](Cc2ccc(-c3ccccc3)cc2)NC1=O [Compound 1233] ({CH2CO}-Y(Carboxymethyl)[Phe(4-COOH)]DWL[Bip]Y[Orn][dL][Dab][Cha]V[Cit]C[Dap][Aun]-OH; thioether N-14),22.1,
CC(C)C[C@@H]1NC(=O)[C@H](Cc2c[nH]c3ccccc23)NC(=O)[C@H](CC(=O)O)NC(=O)[C@H](Cc2ccc(C(=O)O)cc2)NC(=O)[C@H](Cc2ccc(OCC(=O)O)cc2)NC(=O)CSC[C@@H](C(=O)N[C@@H](CCN)C(=O)NCCCCCCCCCCC(=O)O)NC(=O)[C@H](CCCNC(N)=O)NC(=O)[C@H](C(C)C)NC(=O)[C@H](CC2CCCCC2)NC(=O)[C@H](CCN)NC(=O)[C@@H](CC(C)C)NC(=O)[C@H](CCCN)NC(=O)[C@H](Cc2ccc(O)cc2)NC(=O)[C@H](Cc2ccc(-c3ccccc3)cc2)NC1=O [Compound 1234] ({CH2CO}-Y(Carboxymethyl)[Phe(4-COOH)]DWL[Bip]Y[Orn][dL][Dab][Cha]V[Cit]C[Dab][Aun]-OH; thioether N-14),39.8,
CC(C)C[C@@H]1NC(=O)[C@H](Cc2c[nH]c3ccccc23)NC(=O)[C@H](CC(=O)O)NC(=O)[C@H](Cc2ccc(C(=O)O)cc2)NC(=O)[C@H](Cc2ccc(OCC(=O)O)cc2)NC(=O)CSC[C@@H](C(=O)N[C@@H](CCCN)C(=O)NCCCCCCCCCCC(=O)O)NC(=O)[C@H](CCCNC(N)=O)NC(=O)[C@H](C(C)C)NC(=O)[C@H](CC2CCCCC2)NC(=O)[C@H](CCN)NC(=O)[C@@H](CC(C)C)NC(=O)[C@H](CCCN)NC(=O)[C@H](Cc2ccc(O)cc2)NC(=O)[C@H](Cc2ccc(-c3ccccc3)cc2)NC1=O [Compound 1235] ({CH2CO}-Y(Carboxymethyl)[Phe(4-COOH)]DWL[Bip]Y[Orn][dL][Dab][Cha]V[Cit]C[Orn][Aun]-OH; thioether N-14),32.1,
CC(C)C[C@@H]1NC(=O)[C@H](Cc2c[nH]c3ccccc23)NC(=O)[C@H](CC(=O)O)NC(=O)[C@H](Cc2ccc(C(=O)O)cc2)NC(=O)[C@H](Cc2ccc(OCC(=O)O)cc2)NC(=O)CSC[C@@H](C(=O)N[C@@H](CCCCN)C(=O)NCCCCCCCCCCC(=O)O)NC(=O)[C@H](CCCNC(N)=O)NC(=O)[C@H](C(C)C)NC(=O)[C@H](CC2CCCCC2)NC(=O)[C@H](CCN)NC(=O)[C@@H](CC(C)C)NC(=O)[C@H](CCCN)NC(=O)[C@H](Cc2ccc(O)cc2)NC(=O)[C@H](Cc2ccc(-c3ccccc3)cc2)NC1=O [Compound 1236] ({CH2CO}-Y(Carboxymethyl)[Phe(4-COOH)]DWL[Bip]Y[Orn][dL][Dab][Cha]V[Cit]CK[Aun]-OH; thioether N-14),35.7,
CC(C)C[C@@H]1NC(=O)[C@H](Cc2c[nH]c3ccccc23)NC(=O)[C@H](CC(=O)O)NC(=O)[C@H](Cc2ccc(C(=O)O)cc2)NC(=O)[C@H](Cc2ccc(OCC(=O)O)cc2)NC(=O)CSC[C@@H](C(=O)N[C@@H](CCCNC(=N)N)C(=O)NCCCCCCCCCCC(=O)O)NC(=O)[C@H](CCCNC(N)=O)NC(=O)[C@H](C(C)C)NC(=O)[C@H](CC2CCCCC2)NC(=O)[C@H](CCN)NC(=O)[C@@H](CC(C)C)NC(=O)[C@H](CCCN)NC(=O)[C@H](Cc2ccc(O)cc2)NC(=O)[C@H](Cc2ccc(-c3ccccc3)cc2)NC1=O [Compound 1237] ({CH2CO}-Y(Carboxymethyl)[Phe(4-COOH)]DWL[Bip]Y[Orn][dL][Dab][Cha]V[Cit]CR[Aun]-OH; thioether N-14),70.6,
CC(C)C[C@@H]1NC(=O)[C@H](Cc2c[nH]c3ccccc23)NC(=O)[C@H](CC(=O)O)NC(=O)[C@H](Cc2ccc(C(=O)O)cc2)NC(=O)[C@H](Cc2ccc(OCC(=O)O)cc2)NC(=O)CSC[C@@H](C(=O)NCCOCCOCC(=O)NCCCCCCCCCCC(=O)O)NC(=O)[C@H](CN)NC(=O)[C@H](C(C)C)NC(=O)[C@H](CC2CCCCC2)NC(=O)[C@H](CCN)NC(=O)[C@@H](CC(C)C)NC(=O)[C@H](CCCN)NC(=O)[C@H](Cc2ccc(O)cc2)NC(=O)[C@H](Cc2ccc(-c3ccccc3)cc2)NC1=O [Compound 1238] ({CH2CO}-Y(Carboxymethyl)[Phe(4-COOH)]DWL[Bip]Y[Orn][dL][Dab][Cha]V[Dap]C[AEEA][Aun]-OH; thioether N-14),39.3,
